Where no end group is shown, it is not given here.
Key:
[1] = target: T1, IL-1 induced down-regulation of the epidermal growth factor (EGF) receptor in normal human dermal fibroblasts (NHDF) (Homo sapiens, UniProt P14778); assay: Epidermal Growth Factor Receptor Down Regulation Assay; type: cell-based; details: 37° C., in the presence of IL-1α, 125I-labeled EGF binding, read-out: IC50 (approximate concentration which blocked 50% of the IL-1 induced down regulation of the EGF receptor)
T1 sequence (P14778 18-569): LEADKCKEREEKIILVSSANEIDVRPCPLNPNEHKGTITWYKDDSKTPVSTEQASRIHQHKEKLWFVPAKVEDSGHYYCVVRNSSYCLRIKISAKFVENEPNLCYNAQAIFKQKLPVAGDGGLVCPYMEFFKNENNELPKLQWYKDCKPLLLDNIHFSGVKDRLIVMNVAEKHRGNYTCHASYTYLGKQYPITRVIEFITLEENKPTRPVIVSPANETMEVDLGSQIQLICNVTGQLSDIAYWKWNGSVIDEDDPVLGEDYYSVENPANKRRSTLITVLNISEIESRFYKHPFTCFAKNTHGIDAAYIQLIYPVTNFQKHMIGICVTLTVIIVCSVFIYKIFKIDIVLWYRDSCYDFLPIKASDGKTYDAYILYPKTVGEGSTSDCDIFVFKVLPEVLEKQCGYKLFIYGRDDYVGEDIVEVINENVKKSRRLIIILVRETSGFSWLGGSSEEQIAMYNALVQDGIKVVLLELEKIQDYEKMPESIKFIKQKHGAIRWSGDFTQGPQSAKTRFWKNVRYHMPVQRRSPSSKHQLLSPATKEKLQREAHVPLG
Text: The protocol set forth in Bird and Saklatvala (1989) J. Immunol. […] This assay examines the effect of the compounds of the invention on the IL-1 induced down-regulation of the epidermal growth factor (EGF) receptor as measured by the binding of ^125 I-labeled EGF to its receptor in normal human dermal fibroblasts (NHDF). […] The table below lists the approximate concentration of representative peptides of the invention which blocked 50% of the IL-1 induced down regulation of the EGF receptor. IC50 values are indicated symbolically by the symbols "-", "+", and "++". […] Those peptides which give IC50 values of less than or equal to 100 μM are given a "+", while those which give IC50 values of 500 nM or less are indicated with a "++". Those peptides which give IC50 values at or near the cutoff point for a particular symbol are indicated with a hybrid, e.g. "±". Those peptides for which IC50 values were not determined are listed as "N.D".

IL-1RtI = target: T2, IL-1RtI (Homo sapiens, UniProt P14778); assay: Inhibition of 125I-IL-1α binding to IL-1RtI (Example 3); details: inhibition of 125I-IL-1α binding to IL-1RtI; soluble peptide unless marked *
T2 construct: made in house; host or cells: recombinant host cells (one form soluble from baculovirus transformed host cells; another PIG-tailed and cleaved from the cell surface)
T2 sequence (P14778 18-336): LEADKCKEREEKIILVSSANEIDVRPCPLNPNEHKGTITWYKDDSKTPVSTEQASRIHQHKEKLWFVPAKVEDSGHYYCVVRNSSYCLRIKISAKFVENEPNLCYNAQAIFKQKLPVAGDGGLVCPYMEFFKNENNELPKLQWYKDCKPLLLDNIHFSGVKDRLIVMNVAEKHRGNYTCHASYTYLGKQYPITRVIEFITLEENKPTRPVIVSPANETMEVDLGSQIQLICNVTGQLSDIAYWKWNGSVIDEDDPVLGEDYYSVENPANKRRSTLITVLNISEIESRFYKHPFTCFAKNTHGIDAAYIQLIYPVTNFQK
How it was run: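 Competition with 90 pM 125I-IL-1α was run in duplicate for 2 h at 4 °C in HEPES-buffered RPMI with 1% BSA, pH 7.2-7.3, against either antibody-captured truncated receptor or cells with full-length IL-1RtI. Gamma counting of NaOH-detached material gave approximate IC50; high-affinity peptides used 24-well format.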

[2] = target: T3, IL-1 induced E-selectin in HUVEC cells (Homo sapiens, UniProt P14778); assay: Peptide Effects on IL-1 Induced E-Selectin (HUVEC Cells); type: cell-based; details: 120 pM IL-1α, read-out: IC50 (concentration required to inhibit 50% of IL-1 induced E-selectin expression)
T3 sequence (P14778 18-569): T1 sequence (P14778 18-569)
Experimental: The compounds of the present invention were assayed for their ability to inhibit the expression of IL-1 induced E-selectin in HUVEC cells (human umbilical vein endothelial cells). HUVEC cells are grown to confluency in the wells of a 24-well microtiter plate. The compounds were serially diluted in DMEM/F12+0.1% BSA ("SFM"with 120 pM IL-1α. The cells were washed and then incubated with IL-1α and the compound to be tested for 15 minutes. The cells were again washed and incubated in SFM for 4 hours. The cells were washed and incubated with anti-selectin antibody for 30 minutes. Following antibody incubation, the cells were incubated with ^125 I Protein A and washed. The amount of ^125 I bound to the cells was then determined. The concentration of compounds required to inhibit 50% of IL-1 induced E-selectin expression is shown below.

Measured: IC50

TANVSSFEWTPGYWQPYALPL
≤ 500 nM: [1] | IL-1RtI | [2]

— patent US5861476A, “Peptides and compounds that bind to the IL-1 receptor” (Affymax Technologies N.V., priority 1995, dated 1999)
